Data as given in patent US9150845B2, “Lyase enzymes, nucleic acids encoding them and methods for making and using them” (BASF ENZYMES LLC, priority 2005, dated 2015).

Assays:
DH5α host = experiment: Ammonia selection (growth with amino acid substrate, host + vector); assay type: cell-based; conditions: substrate tested
Text: (§1) An exemplary activity-based discovery protocol comprises use of an ammonia selection using α-methylPhe to screen environmental libraries. […] A phenylalanine selection screen was also implemented to screen libraries, e.g., environmental libraries—which yielded, inter alia, chorismate mutases (CM), which complement a PheA mutation in the auxotroph screening host. An adamantyl phosphonate, an inhibitor of CM activity, also was used to determine whether can minimize background CM activity in this selection/screening protocol.

chorismate mutases (CM) = experiment: Phenylalanine selection screen: suppression of background chorismate mutase activity; assay type: cell-based; conditions: PheA auxotroph screening host
Text: as §1

[1] = Activity assignment of exemplary polypeptides (Table 1, assays of Examples 1, 2 and 3); assay type: biochemical; conditions: Table 1 (FIG. 8)
Text: Table 1, presented as FIG. 8, details an exemplary activity determined for each exemplary polypeptide of the invention (and, also notes one exemplary nucleic acid of the invention that encodes the exemplary polypeptide; as determined by the assays described in Examples 1, 2 and 3, below. Table 1 also sets forth the source organism from which the polynucleotide was isolated (where “unknown” means that the source was an environmental sample), the GenBank accession number of the top BLAST hit, the organism from which the top BLAST hit was isolated, the percent sequence identity between the polypeptide of the invention and the top BLAST hit, the activity assigned to the top BLAST hit, and notes for that particular polynucleotide/polypeptide entry. […]
HAL enzyme activity can be determined as described in Baedeker & Schulz (Eur. J. Biochem 2002, 269, 1790-1797), wherein enzyme activity was determined as the rate of urocanate formation, measured spectrophotometrically at 277 nm. […] The reaction was started by adding 200 μL of 0.5 M histidine solution and then monitored for approximately 5 minutes.
In one aspect, PAL enzyme activity can be determined as described in Rother & Retey (Eur. J. Biochem, 2002, 269, 3065-3075), by following the formation of E-cinnamate spectrophotometrically at 30° C. at 290 nm. […] Kinetic constants were determined using a double reciprocal plot. […]

Molecule	background growth with negative control (host+empty vector) (DH5α host)	other results
N[C@@H](Cc1ccccc1Br)C(=O)O [2-BromoPhe, 2-Bromo-L-phenylalanine]	background growth	–
N[C@@H](Cc1ccccc1Cl)C(=O)O [2-ChloroPhe, 2-Chloro-L-phenylalanine]	background growth	–
N[C@@H](Cc1ccccc1)C(=O)O [Phe, phenylalanine]	background growth	–
C[C@](N)(Cc1ccccc1)C(=O)O [α-methylPhe, α-methylphenylalanine]	no background growth	–
adamantyl phosphonate	–	inhibition of background CM activity in selection/screening protocol (chorismate mutases (CM)): lack of potency
SEQ ID NO:236: polypeptide encoded by SEQ ID NO:235, initially isolated from Pseudomonas fluorescens PfO-1 (protein, Obtained from environmental sample; DOMAIN (1)...(492): Phenylalanine and histidine ammonia-lyase; SITE (140)...(156): Phenylalanine and histidine ammonia-lyases signature. Prosite id = PS00488; SITE (201)...(204): N-glycosylation site. Prosite id = PS00001; SITE (514)...(517): N-glycosylat) MITIRGEGLTIAQIAAVARGAPVRMTDDEAVLARVRASRQRIVEALESGQQIYGVTTLYGGMADRVVPADRLEALQRVSLWHHKVGAGPRLPVPDVRAAMLLRANSLLKGASGVRVELVERYVAFLNAGATPHVYQRGSIGASGDLSPLAYIGAAVIGLDRAWLVDLGEETLDCLTVLRRLGLEPMILQPKEGLALCNGTAASTGVAANCIERAFALTALALGTHALYFQALDATTQSFEPFVHALKPHPGQVWTAREMAALLDGSGLVRSEAAGDRAHRRGGLIQDRYSLRCMPQFVGPIVDGLAEAARQIEIEANSANDNPLIDPETGEVFHTGNFLAEYTAVAMDRLRYHLGMLAKHLDTQIALLVAPEFSRGLSPSLAGNLEPGLNVGLKSLQISCNSLMPLLTFYGQSMADRFPTHAEQFNQNINSQAMNGANLARDSVEVLAHFMANALVFAVQAVELRAWLVAGTYDASEVLSPATRPLYAAARAAAAGPPGPHRPLVWNDTDGFLEDKVRGVMSSILEGGAVPEAVAPVRERLRAHRG	–	exemplary activity determined for the polypeptide [1]: esterase activity
SEQ ID NO:2: polypeptide encoded by SEQ ID NO:1, initially isolated from Tannerella forsythensis ATCC 43037 (protein, Tannerella forsythensis ATCC 43037; DOMAIN (4)...(493): Phenylalanine and histidine ammonia-lyase) MEKTVTYQSEKGFSIHDVERLLLGQSHLKLSAESLQKVERCFIFLREFSTDKVIYGINTGFGPMAQYRVDDNCLKQLQYNIIRSHSTGAGEPLDPIYVKAAMIARLSTFLQGYSGIHTDLVRLLTEFINRDICPFIPEHGSVGASGDLVQLAHIALTLIGEGEVFYEGKRRPTAEVMQKEKLSPLDIYIREGLSATNGTSVMTGIGLVNLIYAKRLLHWSIAASVMMNEIASSYDDLMSPGLNATKRHEGQQEIARAMCRWAAGSKAMRKREIEMFQRHTEKVFGHKVQAYYSLRCVPQILGPIWDTMAYAEKVLVDELNSACDNPIVDPEAQYVYHGGNFHGDYISFEMDKLKIAVTKMTMLAERQLNYLFHNRINDDILPPFVNLGVLGLNYGLQAAQFTATSTTAECQTLSNPMYIHSIPNNNDNQDIVSMGANAALMAKTVIENGYQVMAIHFMALVQAVDYLKLQPRMAEKTRAVYDEIRAFFPVFTDDTPKYREIETMITYLKSSGKRI	–	exemplary activity determined for the polypeptide [1]: TAL and PAL activity
